Laboratory results taken from patent US20260355323A1, “CEREBLON-RECRUITING BCL-XL/BCL-2 DUAL DEGRADERS” (University of Florida Research Foundation, Incorporated, priority 2022, published 2026).

Assays:
WI-38 NC = experiment: Senolytic activity, cell viability (PrestoBlue HS), WI-38 NC; assay type: cell-based; conditions: Homo sapiens, 72 h
Protocol: (§1) WI-38 and HUVEC cells were incubated with increasing concentrations of degraders for 72 h. Cell viability was measured using PrestoBlue HS cell viability reagent.

[1] = system: WI-38 irradiation-induced senescent cells (IR-SC); experiment: Senolytic activity, cell viability (PrestoBlue HS), WI-38 IR-SC; assay type: cell-based; conditions: Homo sapiens, 72 h
Protocol: To induce senescence in WI-38 and HUVEC, cells were subjected to x-ray irradiation at 20 Gray using X-RAD 320 biological irradiator. Following between 10 to 15 days after irradiation, senescence was induced in cells, and irradiation-induced senescent cells (IR-SC) were then used for cell viability and Western blotting tests.
as §1

[2] = system: MOLT-4 acute lymphoblastic leukemia cells; experiment: Cell viability, tetrazolium-based MTS assay, MOLT-4; conditions: Homo sapiens, MOLT-4, 48 h; read-out: Anti-Cancer Activity EC50 (48 hr), MOLT-4
Protocol: (§2) Acute lymphoblastic leukemia cells (MOLT-4 and RS4;11) were incubated with increasing concentrations of Bcl-xL/Bcl-2 degraders for 48 h. Cell viability was measured by tetrazolium-based MTS assay.

[3] = system: RS4;11 acute lymphoblastic leukemia cells; experiment: Cell viability, tetrazolium-based MTS assay, RS4;11; conditions: Homo sapiens, RS4;11, 48 h, read-out: Anti-Cancer Activity EC50 (48 hr), RS4
Protocol: as §2

Row | SMILES | EC50 (WI-38 NC) | EC50 [1] | EC50 [2] | EC50 [3]
1 | C[C@@]1(CN2CCN(C(=O)CCCN3CCN(c4ccc5c(c4)CN(C4CCC(=O)NC4=O)C5=O)CC3)CC2)CCC(c2ccc(Cl)cc2)=C(CN2CCN(c3ccc(C(=O)NS(=O)(=O)c4ccc(N[C@H](CCN5CCCOCC5)CSc5ccccc5)c(S(=O)(=O)C(F)(F)F)c4)cc3)CC2)C1 (stereo partly drawn) [Compound 2, N-((4-(((R)-4-(1,4-oxazepan-4-yl)-1-(phenylthio)butan-2-yl)amino)-3-((trifluoromethyl)sulfonyl)phenyl)sulfonyl)-4-(4-(((4R)-4′-chloro-4-((4-(4-(4-(2-(2,6-dioxopiperidin-3-yl)-1-oxoisoindolin-5-yl)piperazin-1-yl)butanoyl)piperazin-1-yl)methyl)-4-methyl-3,4,5,6-tetrahydro-[1,1′-biphenyl]-2-yl)methyl)piperazin-1-yl)benzamide] | > 10000 nM | 1 to 10 nM | < 1 nM | < 1 nM
2 | C[C@@]1(CN2CCN(C(=O)CN3CCC(C#Cc4ccc5c(c4)CN(C4CCC(=O)NC4=O)C5=O)CC3)CC2)CCC(c2ccc(Cl)cc2)=C(CN2CCN(c3ccc(C(=O)NS(=O)(=O)c4ccc(N[C@H](CCN5CCCOCC5)CSc5ccccc5)c(S(=O)(=O)C(F)(F)F)c4)cc3)CC2)C1 (stereo partly drawn) [Compound 5, N-((4-(((R)-4-(1,4-oxazepan-4-yl)-1-(phenylthio)butan-2-yl)amino)-3-((trifluoromethyl)sulfonyl)phenyl)sulfonyl)-4-(4-(((4R)-4′-chloro-4-((4-(2-(4-((2-(2,6-dioxopiperidin-3-yl)-1-oxoisoindolin-5-yl)ethynyl)piperidin-1-yl)acetyl)piperazin-1-yl)methyl)-4-methyl-3,4,5,6-tetrahydro-[1,1′-biphenyl]-2-yl)methyl)piperazin-1-yl)benzamide] | > 10000 nM | 10 to 100 nM | < 1 nM | < 1 nM
3 | C[C@@]1(CN2CCN(C(=O)CN3CCN(CCCc4ccc5c(c4)CN(C4CCC(=O)NC4=O)C5=O)CC3)CC2)CCC(c2ccc(Cl)cc2)=C(CN2CCN(c3ccc(C(=O)NS(=O)(=O)c4ccc(N[C@H](CCN5CCCOCC5)CSc5ccccc5)c(S(=O)(=O)C(F)(F)F)c4)cc3)CC2)C1 (stereo partly drawn) [Compound 6, N-((4-(((R)-4-(1,4-oxazepan-4-yl)-1-(phenylthio)butan-2-yl)amino)-3-((trifluoromethyl)sulfonyl)phenyl)sulfonyl)-4-(4-(((4R)-4′-chloro-4-((4-(2-(4-(3-(2-(2,6-dioxopiperidin-3-yl)-1-oxoisoindolin-5-yl)propyl)piperazin-1-yl)acetyl)piperazin-1-yl)methyl)-4-methyl-3,4,5,6-tetrahydro-[1,1′-biphenyl]-2-yl)methyl)piperazin-1-yl)benzamide] | > 10000 nM | 1 to 10 nM | < 1 nM | < 1 nM
4 | C[C@@]1(CN2CCN(C(=O)CN3CCC(CCc4ccc5c(c4)CN(C4CCC(=O)NC4=O)C5=O)CC3)CC2)CCC(c2ccc(Cl)cc2)=C(CN2CCN(c3ccc(C(=O)NS(=O)(=O)c4ccc(N[C@H](CCN5CCCOCC5)CSc5ccccc5)c(S(=O)(=O)C(F)(F)F)c4)cc3)CC2)C1 (stereo partly drawn) [Compound 7, N-((4-(((R)-4-(1,4-oxazepan-4-yl)-1-(phenylthio)butan-2-yl)amino)-3-((trifluoromethyl)sulfonyl)phenyl)sulfonyl)-4-(4-(((4R)-4′-chloro-4-((4-(2-(4-(2-(2-(2,6-dioxopiperidin-3-yl)-1-oxoisoindolin-5-yl)ethyl)piperidin-1-yl)acetyl)piperazin-1-yl)methyl)-4-methyl-3,4,5,6-tetrahydro-[1,1′-biphenyl]-2-yl)methyl)piperazin-1-yl)benzamide] | > 10000 nM | 1 to 10 nM | < 1 nM | < 1 nM
5 | C[C@@]1(CN2CCN(C(=O)CN3CCC(CN4CCN(c5ccc6c(c5)CN(C5CCC(=O)NC5=O)C6=O)CC4)CC3)CC2)CCC(c2ccc(Cl)cc2)=C(CN2CCN(c3ccc(C(=O)NS(=O)(=O)c4ccc(N[C@H](CCN5CCCOCC5)CSc5ccccc5)c(S(=O)(=O)C(F)(F)F)c4)cc3)CC2)C1 (stereo partly drawn) [Compound 8, N-((4-(((R)-4-(1,4-oxazepan-4-yl)-1-(phenylthio)butan-2-yl)amino)-3-((trifluoromethyl)sulfonyl)phenyl)sulfonyl)-4-(4-(((4R)-4′-chloro-4-((4-(2-(4-((4-(2-(2,6-dioxopiperidin-3-yl)-1-oxoisoindolin-5-yl)piperazin-1-yl)methyl)piperidin-1-yl)acetyl)piperazin-1-yl)methyl)-4-methyl-3,4,5,6-tetrahydro-[1,1′-biphenyl]-2-yl)methyl)piperazin-1-yl)benzamide] | > 10000 nM | 1 to 10 nM | < 1 nM | < 1 nM
6 | C[C@@]1(CN2CCN(C(=O)CCCN3CCC(CN4CCN(c5ccc6c(c5)CN(C5CCC(=O)NC5=O)C6=O)CC4)CC3)CC2)CCC(c2ccc(Cl)cc2)=C(CN2CCN(c3ccc(C(=O)NS(=O)(=O)c4ccc(N[C@H](CCN5CCCOCC5)CSc5ccccc5)c(S(=O)(=O)C(F)(F)F)c4)cc3)CC2)C1 (stereo partly drawn) [Compound 9, N-((4-(((R)-4-(1,4-oxazepan-4-yl)-1-(phenylthio)butan-2-yl)amino)-3-((trifluoromethyl)sulfonyl)phenyl)sulfonyl)-4-(4-(((4R)-4′-chloro-4-((4-(4-(4-((4-(2-(2,6-dioxopiperidin-3-yl)-1-oxoisoindolin-5-yl)piperazin-1-yl)methyl)piperidin-1-yl)butanoyl)piperazin-1-yl)methyl)-4-methyl-3,4,5,6-tetrahydro-[1,1′-biphenyl]-2-yl)methyl)piperazin-1-yl)benzamide] | > 10000 nM | 10 to 100 nM | < 1 nM | < 1 nM
7 | C[C@@]1(CN2CCN(C(=O)CN3CCC(CCN4CCN(c5ccc6c(c5)CN(C5CCC(=O)NC5=O)C6=O)CC4)CC3)CC2)CCC(c2ccc(Cl)cc2)=C(CN2CCN(c3ccc(C(=O)NS(=O)(=O)c4ccc(N[C@H](CCN5CCCOCC5)CSc5ccccc5)c(S(=O)(=O)C(F)(F)F)c4)cc3)CC2)C1 (stereo partly drawn) [Compound 10, N-((4-(((R)-4-(1,4-oxazepan-4-yl)-1-(phenylthio)butan-2-yl)amino)-3-((trifluoromethyl)sulfonyl)phenyl)sulfonyl)-4-(4-(((4R)-4′-chloro-4-((4-(2-(4-(2-(4-(2-(2,6-dioxopiperidin-3-yl)-1-oxoisoindolin-5-yl)piperazin-1-yl)ethyl)piperidin-1-yl)acetyl)piperazin-1-yl)methyl)-4-methyl-3,4,5,6-tetrahydro-[1,1′-biphenyl]-2-yl)methyl)piperazin-1-yl)benzamide] | > 10000 nM | 10 to 100 nM | < 1 nM | < 1 nM
8 | C[C@@]1(CN2CCC(CN3CCN(CC#Cc4ccc5c(c4)CN(C4CCC(=O)NC4=O)C5=O)CC3)CC2)CCC(c2ccc(Cl)cc2)=C(CN2CCN(c3ccc(C(=O)NS(=O)(=O)c4ccc(N[C@H](CCN5CCCOCC5)CSc5ccccc5)c(S(=O)(=O)C(F)(F)F)c4)cc3)CC2)C1 (stereo partly drawn) [Compound 13, N-((4-(((R)-4-(1,4-oxazepan-4-yl)-1-(phenylthio)butan-2-yl)amino)-3-((trifluoromethyl)sulfonyl)phenyl)sulfonyl)-4-(4-(((4R)-4′-chloro-4-((4-((4-(3-(2-(2,6-12 dioxopiperidin-3-yl)-1-oxoisoindolin-5-yl)prop-2-yn-1-yl)piperazin-1-yl)methyl)piperidin-1-yl)methyl)-4-methyl-3,4,5,6-tetrahydro-[1,1′-biphenyl]-2-yl)methyl)piperazin-1-14 yl)benzamide] | > 10000 nM | 1 to 10 nM | < 1 nM | < 1 nM
9 | CC1(CN2CCN(C(=O)CN3CCN(C(=O)CCCCNc4cccc5c4C(=O)N(C4CCC(=O)NC4=O)C5=O)CC3)CC2)CCC(c2ccc(Cl)cc2)=C(CN2CCN(c3ccc(C(=O)NS(=O)(=O)c4ccc(N[C@H](CCN5CCOCC5)CSc5ccccc5)c(S(=O)(=O)C(F)(F)F)c4)cc3)CC2)C1 (stereo partly drawn) [Compound 14, 4-(4-((4′-chloro-4-((4-(2-(4-(5-((2-(2,6-dioxopiperidin-3-yl)-1,3-dioxoisoindolin-4-yl)amino)pentanoyl)piperazin-1-yl)acetyl)piperazin-1-yl)methyl)-4-methyl-3,4,5,6-tetrahydro-[1,1′-biphenyl]-2-yl)methyl)piperazin-1-yl)-N-((4-(((R)-4-morpholino-1-(phenylthio)butan-2-yl)amino)-3-((trifluoromethyl)sulfonyl)phenyl)sulfonyl)benzamide] | > 10000 nM | 10000 to 100000 nM | < 1 nM | < 1 nM
10 | C[C@@]1(CN2CCC(C#Cc3ccc4c(c3)CN(C3CCC(=O)NC3=O)C4=O)CC2)CCC(c2ccc(Cl)cc2)=C(CN2CCN(c3ccc(C(=O)NS(=O)(=O)c4ccc(N[C@H](CCN5CCCOCC5)CSc5ccccc5)c(S(=O)(=O)C(F)(F)F)c4)cc3)CC2)C1 (stereo partly drawn) [Compound 132, N-((4-(((R)-4-(1,4-oxazepan-4-yl)-1-(phenylthio)butan-2-yl)amino)-3-((trifluoromethyl)sulfonyl)phenyl)sulfonyl)-4-(4-(((4R)-4′-chloro-4-((4-((2-(2,6-dioxopiperidin-3-yl)-1-oxoisoindolin-5-yl)ethynyl)piperidin-1-yl)methyl)-4-methyl-3,4,5,6-tetrahydro-[1,1′-biphenyl]-2-yl)methyl)piperazin-1-yl)benzamide] | > 10000 nM | – | < 1 nM | 1 to 10 nM
